This test has as its target T1, threonine dehydrogenase (Tdh) (Escherichia coli, UniProt P07913).
T1 sequence (P07913 1-341): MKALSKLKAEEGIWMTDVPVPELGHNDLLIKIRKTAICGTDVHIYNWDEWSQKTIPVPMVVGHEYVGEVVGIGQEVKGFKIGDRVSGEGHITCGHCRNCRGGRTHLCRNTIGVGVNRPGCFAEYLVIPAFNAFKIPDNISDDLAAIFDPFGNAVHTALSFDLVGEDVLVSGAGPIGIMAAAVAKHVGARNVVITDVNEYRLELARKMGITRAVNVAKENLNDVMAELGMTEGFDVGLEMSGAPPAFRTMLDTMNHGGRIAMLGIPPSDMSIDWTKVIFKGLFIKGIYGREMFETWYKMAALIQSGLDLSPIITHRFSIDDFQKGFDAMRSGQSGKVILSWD
Description: NADH formation at […] nm. The class given is biochemical. As to conditions: Fe(II)-loaded enzyme; 30 mM threonine, 1 mM NAD+, 50 mM Tris-HCl pH 8.4, 25 °C, anaerobic.

Structures are written as SMILES.

For the molecule `C[C@@H](O)[C@H](N)C(=O)O` [threonine], the “NADH formation at 340 nm” value is reported as “Tdh oxidizes threonine, with the production of NADH that can be monitored”.

The values above are taken from article PMC3731988 (Molecular microbiology, 2013).
